According to patent US12194050B2, “Thiadiazine derivatives” (RICHTER GEDEON NYRT., priority 2018, dated 2025):

Molecular target: human α7 nAchR (Homo sapiens (Human), UniProt P36544)
Assay: Human α7 nicotinic acetylcholine receptor [Ca2+]i assay (PAM, Ca2+ fluorometry)
Format: cell-based
Conditions: Flp-In 293 cells expressing human α7 nAchR and human RIC-3; in presence of saturating agonist (mostly PNU-282987, 1 μM)
Method: Biological Activity Human α7 Nicotinic Acetylcholine Receptor [Ca^2+]i Assay
Cells: Flp-In 293 cells stably expressing human α7 nAchR and human RIC-3 (α7 cells, generated in house.)
Materials: 96-well plates coated with PDL (Falcon), culture medium, assay buffer, DMSO, FLIPR Calcium 5 kit (Molecular Devices), probenecid, agonist and PAM test compounds.
Brief Description of the Method (Ca^2+ Fluorometry)
α7 cells stably expressing human α7 nAchR were cultured in the medium detailed above, and were split twice a week. For the fluorometric measurements of cytosolic Ca^2+ ion concentration ([Ca^2+]i) cells were seeded in 96-well microplates at a density of 60000 cells/well and maintained overnight in a tissue culture incubator at 37° C. under an atmosphere of 95% air/5% CO2. The plating medium was identical with the culture medium. 50 μl of the growth medium was aspirated with a cell washer (BioTek Elx405UCVWS). Then 50 μl/well Calcium 5 kit diluted 2-fold in assay buffer was added manually using an 8-channel pipette. After an incubation period (20 minutes, 37° C.) 50 μl/well assay buffer containing vehicle (DMSO, 4% added) or reference α7 PAMs (4×of the final concentration) were added manually and the cells were incubated for an additional 10 minutes at 37° C. Baseline and agonist-evoked [Ca2+]i-changes were monitored with FlexStation II (Molecular Devices, Sunnyvale, Calif.), a plate reader fluorometer with integrated 8-channel fluid addition capability. Fluorescence measurements were carried out at 37° C. The dye was excited at 485 nm, emission was sampled at 525 nm at 1.4-s intervals. Baseline was recorded for 20 seconds followed by agonist stimulation. 50 μl 4× concentrated agonist solution was added to the cells using the pipettor of FlexStation II and fluorescence was monitored for an additional 40 seconds. Final DMSO concentration was 1% for all treatments. To achieve this, a series of DMSO stock solutions were prepared from all test compounds. These stocks were stored under 0° C. and were further diluted in assay buffer to obtain the desired final concentration immediately before the measurement. Agonist and PAM concentration-response studies were conducted in the presence of saturating concentrations of PAMs (mostly PNU-120596, 5 μM) and agonists (mostly PNU-282987, 1 μM), respectively. Results were expressed as ΔF/F values using SoftMax Pro software (Molecular Devices), where F was the resting fluorescence preceding agonist application and ΔF was the increase in fluorescence at a given time (ΔF=maximum fluorescence intensity values after stimulation minus average fluorescence intensity values before stimulation). In all experiments, all treatments were measured in multiple wells in parallel, and the mean ΔF/F values were used for analysis.

Sequence of human α7 nAchR (P36544 23-502): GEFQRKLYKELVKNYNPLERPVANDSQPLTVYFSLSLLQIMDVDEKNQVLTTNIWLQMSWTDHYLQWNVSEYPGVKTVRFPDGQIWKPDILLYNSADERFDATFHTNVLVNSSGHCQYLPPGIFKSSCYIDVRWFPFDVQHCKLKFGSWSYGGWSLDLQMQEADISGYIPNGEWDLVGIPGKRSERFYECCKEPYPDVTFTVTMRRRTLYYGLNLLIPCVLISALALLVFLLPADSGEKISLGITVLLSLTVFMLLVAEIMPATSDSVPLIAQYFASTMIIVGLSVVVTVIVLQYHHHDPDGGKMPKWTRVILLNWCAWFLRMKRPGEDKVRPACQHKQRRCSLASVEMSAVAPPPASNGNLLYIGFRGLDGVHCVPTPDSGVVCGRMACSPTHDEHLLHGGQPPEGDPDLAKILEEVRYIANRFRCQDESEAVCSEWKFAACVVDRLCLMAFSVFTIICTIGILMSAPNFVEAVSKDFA

Row | EC50 [nM] | Structure (SMILES)
1 | 10 | CCN1C(C(=O)Nc2cccc(C(F)(F)F)n2)=CC(c2ccc(OC)c(C(F)(F)F)c2)=NS1(=O)=O [Example 87, 2-ethyl-5-[4-methoxy-3-(trifluoromethyl)phenyl]-1,1-dioxo-N-[6-(trifluoromethyl)pyridin-2-yl]-2H-1λ^6,2,6-thiadiazine-3-carboxamide]
2 | 1800 | COCCN1C(C(=O)Nc2cccc(F)n2)=CC(C2CCC(F)(F)CC2)=NS1(=O)=O [Example 131]
3 | 120 | CC[C@H](C)N1C(C(=O)Nc2cccc(C(F)(F)F)n2)=CC(c2ccc(OC)c(OC)c2)=NS1(=O)=O [Example 82]
4 | 1300 | COc1ccc(NC(=O)C2=CC(c3ccc(OC)c(OC)c3)=NS(=O)(=O)N2C(C)C)cc1 [Example 108]
5 | 1100 | CCN1C(C(=O)Nc2cccc(C(F)(F)F)n2)=CC([C@H]2CC[C@H](OC)CC2)=NS1(=O)=O [Example 65]
6 | 120 | CCN1C(C(=O)Nc2cccc(OC)c2)=CC(c2ccc(OC)c(C)c2)=NS1(=O)=O [Example 42]
7 | 2000 | COc1ccc(C2=NS(=O)(=O)N(C)C(C(=O)Nc3ccn4nccc4c3)=C2)cc1OC [Example 7]
8 | 620 | CCN1C(C(=O)Nc2cccc(F)n2)=CC(C2CCC(F)(F)CC2)=NS1(=O)=O [Example 70]
9 | 80 | CCCN1C(C(=O)Nc2cccc(C)c2)=CC(c2ccc(OC)c(OC)c2)=NS1(=O)=O [Example 113]
10 | 110 | COc1ccc(C2=NS(=O)(=O)N(CC3CC3)C(C(=O)Nc3cccc(C(F)(F)F)n3)=C2)cc1OC [Example 103]
11 | 60 | CCN1C(C(=O)Nc2cccc(C)c2)=CC(c2ccc(OC)c(C(F)(F)F)c2)=NS1(=O)=O [Example 40]
12 | 1500 | CCN1C(C(=O)Nc2ccc(F)c(C)n2)=CC([C@H]2CC[C@H](C(F)(F)F)CC2)=NS1(=O)=O [Example 77]
13 | 85 | CCCN1C(C(=O)Nc2cccc(C(F)(F)F)c2)=CC(c2ccc(OC)c(C(F)(F)F)c2)=NS1(=O)=O [Example 115]
14 | 440 | COc1ccc(NC(=O)C2=CC(c3ccc(OC)c(OC)c3)=NS(=O)(=O)N2C)cc1 [Example 11]
15 | 330 | CCN1C(C(=O)Nc2ccnc(C(F)(F)F)n2)=CC([C@H]2CC[C@H](C(F)(F)F)CC2)=NS1(=O)=O [Example 64]
16 | 2900 | CCCCn1cc(NC(=O)C2=CC(c3ccc(OC)c(OC)c3)=NS(=O)(=O)N2C)cn1 [Example 86, N-(1-butyl-1H-pyrazol-4-yl)-5-(3,4-dimethoxyphenyl)-2-methyl-1,1-dioxo-2H-1λ^6,2,6-thiadiazine-3-carboxamide]
17 | 430 | CCN1C(C(=O)Nc2cccc(F)n2)=CC([C@H]2CC3C[C@@H]3C2)=NS1(=O)=O (stereo partly drawn) [Example 72]
18 | 85 | CCN1C(C(=O)Nc2cccc(C#N)n2)=CC([C@H]2CC[C@H](C(F)(F)F)CC2)=NS1(=O)=O [Example 76]
19 | 210 | CCN1C(C(=O)Nc2cccc(C)c2)=CC(c2ccc(OC)c(C)c2)=NS1(=O)=O [Example 45]

Row | EC50 [nM] | Structure (SMILES)
20 | 430 | CCN1C(C(=O)Nc2cccc(C(F)(F)F)n2)=CC(C2CCCCCC2)=NS1(=O)=O [Example 66]
21 | 690 | COc1ccc(C2=NS(=O)(=O)N(C)C(C(=O)Nc3ccc(C(C)=O)cc3)=C2)cc1OC [Example 3]
22 | 290 | COc1ccc(C2=NS(=O)(=O)N(C(C)C)C(C(=O)Nc3cccc(C(F)(F)F)c3)=C2)cc1OC [Example 89]
23 | 55 | COc1ccc(C2=NS(=O)(=O)N(C(C)C)C(C(=O)Nc3cccc(F)n3)=C2)cc1OC [Example 123]
24 | 150 | O=C(Nc1cncc(F)n1)C1=CC([C@H]2CC[C@H](C(F)(F)F)CC2)=NS(=O)(=O)N1CC1CC1 [Example 139]
25 | 1200 | COc1cc(C2=NS(=O)(=O)N(C)C(C(=O)Nc3cccc(C)c3)=C2)ccc1Cl [Example 28]
26 | 1200 | CCN1C(C(=O)Nc2cncc(C(F)(F)F)c2)=CC([C@H]2CC[C@H](C(F)(F)F)CC2)=NS1(=O)=O [Example 58]
27 | 45 | CCCN1C(C(=O)Nc2cccc(C(F)(F)F)n2)=CC(c2ccc(OC)c(OC)c2)=NS1(=O)=O [Example 95]
28 | 110 | COc1ccc(C2=NS(=O)(=O)N(CC3CC3)C(C(=O)Nc3cccc(C)c3)=C2)cc1OC [Example 117]
29 | 2000 | CCCn1ccc(NC(=O)C2=CC(c3ccc(OC)c(OC)c3)=NS(=O)(=O)N2C)n1 [Example 85, 5-(3,4-dimethoxyphenyl)-2-methyl-1,1-dioxo-N-(1-propyl-1H-pyrazol-3-yl)-2H-1λ^6,2,6-thiadiazine-3-carboxamide]
30 | 470 | CN1C(C(=O)Nc2cccc(C(F)(F)F)n2)=CC(C2CCC(F)(F)CC2)=NS1(=O)=O [Example 55]
31 | 190 | CCN1C(C(=O)Nc2cncc(F)n2)=CC([C@H]2CC[C@H](C(F)(F)F)CC2)=NS1(=O)=O [Example 63]
32 | 390 | CCN1C(C(=O)Nc2cccc(C(F)(F)F)n2)=CC(C2CCCCC2)=NS1(=O)=O [Example 73]
33 | 440 | CCN1C(C(=O)Nc2ccc(C)c(Cl)c2)=CC(c2ccc(OC)c(OC)c2)=NS1(=O)=O [Example 30]
34 | 530 | COc1ccc(C2=NS(=O)(=O)N(CC(F)(F)F)C(C(=O)Nc3cccc(C(F)(F)F)c3)=C2)cc1OC [Example 118]
35 | 940 | COc1ccc(C2=NS(=O)(=O)N(C)C(C(=O)Nc3cccc(Cl)c3)=C2)cc1OC [Example 20]
36 | 400 | COc1ccc(C2=NS(=O)(=O)N(C)C(C(=O)Nc3cccc(C(F)(F)F)c3)=C2)cc1C [Example 23]
37 | 170 | CCN1C(C(=O)Nc2ccc(C)cc2)=CC(c2ccc(OC)c(C)c2)=NS1(=O)=O [Example 46]
38 | 670 | COc1cccc(NC(=O)C2=CC(c3ccc(OC)c(OC)c3)=NS(=O)(=O)N2C)c1 [Example 10]

Row | EC50 [nM] | Structure (SMILES)
39 | 100 | CCN1C(C(=O)Nc2ccc(C)cc2)=CC(c2ccc(OC)c(C(F)(F)F)c2)=NS1(=O)=O [Example 41]
40 | 45 | CC(C)N1C(C(=O)Nc2cccc(F)n2)=CC([C@H]2CC[C@H](C(F)(F)F)CC2)=NS1(=O)=O [Example 125]
41 | 140 | CC(C)N1C(C(=O)Nc2cncc(F)n2)=CC([C@H]2CC[C@H](C(F)(F)F)CC2)=NS1(=O)=O [Example 138]
42 | 640 | COc1ccc(C2=NS(=O)(=O)N(C(C)C)C(C(=O)Nc3cc(Cl)ccn3)=C2)cc1OC [Example 110]
43 | 580 | CC(C)N1C(C(=O)Nc2cccc(F)n2)=CC(C2CCC(F)(F)CC2)=NS1(=O)=O [Example 127]
44 | 490 | CCN1C(C(=O)Nc2cccc(C(F)(F)F)c2)=CC(c2ccc(C)c(OC)c2)=NS1(=O)=O [Example 49]
45 | 1300 | CCN1C(C(=O)Nc2ccc(C(F)(F)F)cn2)=CC([C@H]2CC[C@H](C(F)(F)F)CC2)=NS1(=O)=O [Example 59]
46 | 120 | COc1ccc(C2=NS(=O)(=O)N(CC3CC3)C(C(=O)Nc3cccc(C(F)(F)F)c3)=C2)cc1C [Example 105]
47 | 360 | CCN1C(C(=O)Nc2cccc(C(F)(F)F)c2)=CC(c2ccc(OC)c(C)c2)=NS1(=O)=O [Example 44]
48 | 350 | CCN1C(C(=O)Nc2cccc(C(F)F)n2)=CC([C@H]2CC[C@H](C(F)(F)F)CC2)=NS1(=O)=O [Example 80]
49 | 1800 | COc1ccc(C2=NS(=O)(=O)N(C)C(C(=O)Nc3cccc(C#N)c3)=C2)cc1OC [Example 8]
50 | 370 | COc1ccc(C2=NS(=O)(=O)N(CC3CC3)C(C(=O)Nc3cccc(Cl)c3)=C2)cc1OC [Example 104]
51 | 720 | CCN1C(C(=O)Nc2ccc(OC(F)(F)F)cc2)=CC(c2ccc(OC)c(OC)c2)=NS1(=O)=O [Example 32]
52 | 1400 | CCN1C(C(=O)Nc2ccnc(C(F)(F)F)c2)=CC([C@H]2CC[C@H](C(F)(F)F)CC2)=NS1(=O)=O [Example 88]
53 | 380 | CCCN1C(C(=O)Nc2cccc(Cl)c2)=CC(c2ccc(OC)c(OC)c2)=NS1(=O)=O [Example 114]
54 | 140 | CCN1C(C(=O)Nc2cccc(C(F)(F)F)n2)=CC([C@H]2CC3C[C@@H]3C2)=NS1(=O)=O (stereo partly drawn) [Example 71]
55 | 80 | O=C(Nc1cccc(C(F)(F)F)n1)C1=CC(C2CCC(F)(F)CC2)=NS(=O)(=O)N1CC1CC1 [Example 134]
56 | 230 | O=C(Nc1ccc(F)cn1)C1=CC([C@H]2CC[C@H](C(F)(F)F)CC2)=NS(=O)(=O)N1CC1CC1 [Example 133]
57 | 120 | CC(C)N1C(C(=O)Nc2cccc(C(F)(F)F)n2)=CC([C@H]2CC[C@H](C(F)(F)F)CC2)=NS1(=O)=O [Example 93]
